Assay results as given in article PMC4978154, “Phase I metabolites of mephedrone display biological activity as substrates at monoamine transporters” (British Journal of Pharmacology, 2016).

How the values were obtained:
rats = experiment: Locomotor activity (photobeam breaks) during microdialysis; assay type: in vivo; details: rat; for effect on motor activity: 3 mg·kg−1 i.v.; for effect on motor behaviour (activity): 1 and 3 mg·kg−1 i.v.
Experimental: (§1) In vivo microdialysis procedures were carried out as previously described with minor modifications (Baumann et al., 2012). Briefly, male rats anaesthetized with sodium pentobarbital (60 mg·kg^−1, i.p.) received surgically implanted jugular catheters, and intracerebral guide cannulae aimed at the nucleus accumbens (AP +1.6 mm, ML −1.7 mm relative to bregma; −6.2 mm relative to dura) (Paxinos and Watson, 2007). After a 7–10 day recovery, each rat was placed into a chamber equipped with photobeams for the detection of motor parameters (TruScan, Harvard Apparatus, Holliston, MA, USA) and allowed to acclimatize overnight. Food and water were available ad libitum during the acclimatization period. On the following morning, catheters were attached to PE 50 extension tubes, and 0.5 × 2 mm microdialysis probes (CMA/12, Harvard Apparatus, Holliston, MA, USA) were inserted into the guide cannulae. Ringers' solution (150 mM NaCl, 2.8 mM KCl and 2.0 mM CaCl2) was perfused through the probes at 0.6 μL·min^−1 for 3 h. To commence experiments, dialysate samples ([…]) were collected at 20 min intervals, and drug or saline treatments were given after three baseline samples were obtained. Rats received two sequential i.v. injections of mephedrone or its metabolites, with 1 mg·kg^−1 administered at time zero, followed by 3 mg·kg^−1 60 min later. Saline was administered using the same schedule in a separate group of rats. Dialysate concentrations of dopamine and 5‐HT were quantified using HPLC coupled to electrochemical detection (Baumann et al., 2012). Chromatographic data were exported to an Empower software system (Waters, Inc., Milford, MA, USA) for peak identification, integration and analysis.
(§2) Calculations were performed using Microsoft Excel® 2010 (Microsoft Corporation, Redmond, WA, USA) and GRAPHPAD PRISM 5.0. (GraphPad Software Inc., La Jolla, CA, USA). IC50 values for uptake inhibition and EC50 values for release were determined by nonlinear regression fits. Release data expressed as AUC were analysed by one‐way ANOVA followed by Bonferroni's multiple comparison test. Microdialysis and locomotor data were analysed by two‐way ANOVA (drug treatment × time) followed by Bonferroni's test. The effect of monensin treatment on basal efflux of tritiated substrate was analysed with the Mann–Whitney test. P values less than 0.05 (i.e. P < 0.05) were considered significant. The data and statistical analysis comply with the recommendations on experimental design and analysis in pharmacology (Curtis et al., 2015).

[1] = system: extracellular 5-HT in rat nucleus accumbens; experiment: Microdialysis in rat nucleus accumbens, dialysate 5-HT; assay type: in vivo; details: for increase of dialysate 5-HT above baseline: rat nucleus accumbens
Experimental: as §1
Correct probe placements were assessed after the microdialysis experiments. Rats were killed by CO2 narcosis then decapitated. Brains were quickly removed and immersion fixed in 10% paraformaldehyde for 1 week. Subsequently, brains were sectioned on a cryostat, and the location of each probe tip was verified by inspection of photographic images of the brain taken with a digital camera using the macro lens setting.
as §2

hNET = biological target: T1, hNET (Homo sapiens, UniProt P23975); experiment: Transporter release (superfusion) assay in HEK293 cells expressing hNET; assay type: cell-based; details: test drug 10 μM, monensin 10 μM; post hoc Bonferroni
T1 construct: expressed in transfected cells
T1 sequence (P23975 whole entry, the tested form may be a part): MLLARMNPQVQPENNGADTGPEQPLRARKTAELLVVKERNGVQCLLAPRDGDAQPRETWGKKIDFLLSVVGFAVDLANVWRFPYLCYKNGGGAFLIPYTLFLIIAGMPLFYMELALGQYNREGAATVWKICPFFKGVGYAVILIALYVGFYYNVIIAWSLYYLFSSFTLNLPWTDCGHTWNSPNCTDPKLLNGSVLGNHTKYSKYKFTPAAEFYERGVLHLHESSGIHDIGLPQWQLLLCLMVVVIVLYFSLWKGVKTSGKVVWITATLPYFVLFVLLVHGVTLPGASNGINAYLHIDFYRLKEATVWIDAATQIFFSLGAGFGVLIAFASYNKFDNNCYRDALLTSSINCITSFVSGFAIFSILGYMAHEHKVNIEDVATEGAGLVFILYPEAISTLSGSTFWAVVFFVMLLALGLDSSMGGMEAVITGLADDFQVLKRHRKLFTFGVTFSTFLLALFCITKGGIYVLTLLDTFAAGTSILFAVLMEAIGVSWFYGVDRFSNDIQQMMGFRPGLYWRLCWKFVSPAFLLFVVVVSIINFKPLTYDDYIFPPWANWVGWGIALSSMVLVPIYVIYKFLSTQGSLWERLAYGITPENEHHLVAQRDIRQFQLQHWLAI
Experimental: The generation of HEK293 cells stably expressing the human isoforms of DAT (hDAT) and NET (hNET) was carried out as described previously (Scholze et al., 2002). For SERT, the human isoform (hSERT) was cloned in frame with yellow fluorescent protein (Schmid et al., 2001). The generation of a stable cell line was performed as described by Hilber and colleagues (Hilber et al., 2005). HEK293 cells were maintained in humidified atmosphere (5% CO2, 37°C) in DMEM, supplemented with 10% heat‐inactivated FBS and penicillin (100 u 100 mL^−1) and streptomycin (100 μg 100 mL^−1). Selection pressure was maintained by adding geneticin (50 μg·mL^−1) to the cell culture media.
Superfusion experiments were performed as described previously (Scholze et al., 2002). Briefly, HEK293 cells expressing the desired transporter were seeded at a density of 40 000 cells per well onto poly‐D‐lysine‐coated 5 mm glass cover slips in 96‐well plates 24 h prior to the experiment. Cells were preloaded with [^3H]‐MPP^+ (0.1 μM, hDAT and hNET) or [^3H]‐5‐HT (0.4 μM, hSERT) for 20 min at 37°C in a final volume of 100 μL per well. Subsequently, glass coverslips were transferred into small superfusion chambers (volume of 200 μL) and superfused with KHB at 25°C with a superfusion rate of 0.7 mL·min^−1 for 40 min to establish a stable basal efflux. After washout, the collection of 2‐min fractions was initiated. After the first three basal fractions, monensin (10 μM) or solvent was added for four fractions. […] Finally, the cells were lysed in 1% SDS to determine the total radioactivity. Radioactivity per fraction was assessed by a liquid scintillation counter and expressed as fractional release, that is, the percentage of released ^3H in relation to total ^3H present at the beginning of the fraction (Sitte et al., 2000). For analysis, release was expressed as AUC.
Calculations were performed using Microsoft Excel® 2010 (Microsoft Corporation, Redmond, WA, USA) and GRAPHPAD PRISM 5.0. […] IC50 values for uptake inhibition and EC50 values for release were determined by nonlinear regression fits. Release data expressed as AUC were analysed by one‐way ANOVA followed by Bonferroni's multiple comparison test. Microdialysis and locomotor data were analysed by two‐way ANOVA (drug treatment × time) followed by Bonferroni's test. The effect of monensin treatment on basal efflux of tritiated substrate was analysed with the Mann–Whitney test. […]
Data from uptake inhibition assays cannot distinguish whether test drugs act as non‐transported inhibitors or transportable substrates, which evoke release (Scholze et al., 2000; Sitte et al., 2000; Baumann et al., 2013). […] As described previously, efflux of preloaded [^3H]‐MPP^+ or [^3H]‐5‐HT was monitored in the presence or absence of monensin (10 μM) (Scholze et al., 2000). […]

[2] = 3 mg·kg−1 i.v. (60 min after 1 mg·kg−1)

Structure (SMILES): CNC(C)C(=O)c1ccc(C)cc1.Cl (stereo not shown) [Mephedrone, 2‐Methylamino‐1‐(p‐tolyl)propan‐1‐one hydrochloride]
- effect on motor activity (rats): significantly stimulated motor activity
- effect on motor behaviour (activity) (rats): increased activity
- increase of dialysate 5-HT above baseline ([1]; 1 mg·kg−1 i.v.): 15 fold
- increase of dialysate 5-HT above baseline [1, 2]: 25 fold
- enhancement by monensin of drug-evoked [3H]-MPP+ release at hNET (AUC) (hNET): significant

Structure (SMILES): Cc1ccc(C(=O)C(C)N)cc1.Cl (stereo not shown) [Nor‐mephedrone, 2‐amino‐1‐(p‐tolyl)propan‐1‐one hydrochloride]
- effect on motor activity (rats): significantly stimulated motor activity
- effect on motor behaviour (activity) (rats): increased activity
- increase of dialysate 5-HT above baseline ([1]; 1 mg·kg−1 i.v.): 15 fold
- increase of dialysate 5-HT above baseline [1, 2]: 25 fold
- enhancement by monensin of drug-evoked [3H]-MPP+ release at hNET (AUC) (hNET): significant

Structure (SMILES): CNC(C)C(=O)c1ccc(CO)cc1.Cl (stereo not shown) [4‐OH‐mephedrone, 1‐(4‐(hydroxymethyl)phenyl)‐2‐(methylamino)propan‐1‐one hydrochloride]
- effect on motor behaviour (activity) (rats): did not
- effect on extracellular neurotransmitters in the brain (5-HT) ([1]; systemic administration, 1 and 3 mg·kg−1 i.v., rat): no significant effect
- enhancement by monensin of drug-evoked [3H]-MPP+ release at hNET (AUC) (hNET): significant
